Data taken from patent US9999619B2, “Piperidin-4-yl azetidine derivatives as JAK1 inhibitors” (Incyte Corporation, priority 2010, dated 2018).

Legend:
Type in all cases: biochemical
[1] = target: human JAK1 (a.a. 837-1142) (Homo sapiens, UniProt P23458); test: In vitro JAK kinase assay (HTRF, phosphorylation of a biotinylated peptide), JAK1; conditions: measured at 1 mM ATP
Procedure, shortened: (§1)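 N-terminal His-tagged catalytic domains, baculovirus-expressed in insect cells, phosphorylated a biotinylated peptide for 1 hr at room temperature. EDTA stop was followed by SA-APC and Eu-Py20 antibody for 40 minutes, with phosphopeptide read by HTRF.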

[2] = target: human JAK1 (a.a. 837-1142); test: as above; conditions: ratio of JAK2 IC50 to JAK1 IC50, measured at 1 mM ATP
Procedure, shortened: as §1

Jak2 (a.a. 828-1132) = Jak2 (a.a. 828-1132) (Homo sapiens (Human), UniProt O60674); test: In vitro JAK kinase assay (HTRF, phosphorylation of a biotinylated peptide), JAK2; conditions: measured at 1 mM ATP
Procedure, shortened: as §1

Jak2 (a.a. 828-1132), sequence (O60674 828-1132): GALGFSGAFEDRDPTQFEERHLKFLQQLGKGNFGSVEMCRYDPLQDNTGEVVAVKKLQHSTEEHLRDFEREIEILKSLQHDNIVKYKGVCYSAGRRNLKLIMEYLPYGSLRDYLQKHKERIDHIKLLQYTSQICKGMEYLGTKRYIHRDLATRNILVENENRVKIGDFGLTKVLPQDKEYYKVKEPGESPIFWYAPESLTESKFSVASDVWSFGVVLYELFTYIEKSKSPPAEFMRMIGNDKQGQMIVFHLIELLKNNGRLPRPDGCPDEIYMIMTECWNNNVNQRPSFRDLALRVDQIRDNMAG

Compound	IC50 [1] [µM]	IC50 Ratio JAK2/JAK1 [2]	IC50 (Jak2 (a.a. 828-1132)) [µM]
N#CCC1(n2cc(-c3ncnc4[nH]ccc34)cn2)CN(C2CC3CCC(C2)N3C(=O)c2cc(F)cc(C#N)c2)C1 (stereo not drawn) [Example 138, 3-[(3-{3-(Cyanomethyl)-3-[4-(7H-pyrrolo[2,3-d]pyrimidin-4-yl)-1H-pyrazol-1-yl]azetidin-1-yl}-8-azabicyclo[3.2.1]oct-8-yl)carbonyl]-5-fluorobenzonitrile]	≤ 0.005	13.9	≤ 0.01
CS(=O)(=O)N1CCC(N2CC(CC#N)(n3cc(-c4c(F)cnc5[nH]ccc45)cn3)C2)CC1 [Example 355, {3-[4-(5-Fluoro-1H-pyrrolo[2,3-b]pyridin-4-yl)-1H-pyrazol-1-yl]-1-[1-(methylsulfonyl)piperidin-4-yl]azetidin-3-yl}acetonitrile]	≤ 0.005	3.1	≤ 0.01
N#CCC1(n2cc(-c3ncnc4[nH]ccc34)cn2)CN(C2CCN(C(=O)Nc3cccc(C(F)(F)F)c3F)CC2)C1 [Example 170, 4-{3-(cyanomethyl)-3-[4-(7H-pyrrolo[2,3-d]pyrimidin-4-yl)-1H-pyrazol-1-yl]azetidin-1-yl}-N-[2-fluoro-3-(trifluoromethyl)phenyl]piperidine-1-carboxamide]	≤ 0.005	6.9	0.01 to 0.05
N#CCC1(n2ccc(-c3ncnc4[nH]ccc34)c2)CN(C2CCN(C(=O)c3cccc(OC(F)(F)F)c3F)CC2)C1 [Example 281, {1-{1-[2-fluoro-3-(trifluoromethoxy)benzoyl]piperidin-4-yl}-3-[3-(7H-pyrrolo[2,3-d]pyrimidin-4-yl)-1H-pyrrol-1-yl]azetidin-3-yl}acetonitrile]	≤ 0.005	10.0	0.01 to 0.05
Cc1ccc(C(=O)N2CCC(N3CC(CC#N)(n4cc(-c5ncnc6[nH]ccc56)cn4)C3)CC2)s1 [Example 80, {1-{1-[(5-methyl-2-thienyl)carbonyl]piperidin-4-yl}-3-[4-(7H-pyrrolo[2,3-d]pyrimidin-4-yl)-1H-pyrazol-1-yl]azetidin-3-yl}acetonitrile]	≤ 0.005	4.1	≤ 0.01
N#CCC1(n2cc(-c3c(F)cnc4[nH]ccc34)cn2)CN(C2CCN(C(=O)Nc3cnccc3C(F)(F)F)CC2)C1 [Example 330, 4-{3-(cyanomethyl)-3-[4-(5-fluoro-1H-pyrrolo[2,3-b]pyridin-4-yl)-1H-pyrazol-1-yl]azetidin-1-yl}-N-[4-(trifluoromethyl)pyridin-3-yl]piperidine-1-carboxamide]	≤ 0.005	6.7	0.01 to 0.05
N#CCC1(n2cc(-c3c(F)cnc4[nH]ccc34)cn2)CN(C2CCN(C(=O)c3ccnc(C(F)(F)F)c3F)CC2)C1 [Example 314, (3-[4-(5-Fluoro-1H-pyrrolo[2,3-b]pyridin-4-yl)-1H-pyrazol-1-yl]-1-{1-[3-fluoro-2-(trifluoromethyl)isonicotinoyl]piperidin-4-yl}azetidin-3-yl)acetonitrile]	≤ 0.005	11.0	0.01 to 0.05
N#CCC1(n2cc(-c3ncnc4[nH]ccc34)cn2)CN(C2CCN(Cc3ccc(-c4conn4)cc3)CC2)C1 [Example 221, {1-{1-[4-(1,2,3-oxadiazol-4-yl)benzyl]piperidin-4-yl}-3-[4-(7H-pyrrolo[2,3-d]pyrimidin-4-yl)-1H-pyrazol-1-yl]azetidin-3-yl}acetonitrile]	0.005 to 0.02	1.3	0.01 to 0.05
N#CCC1(n2ccc(-c3ncnc4[nH]ccc34)c2)CN(C2CCN(C(=O)c3ccc(C(F)(F)F)c(F)c3)CC2)C1 [Example 267, {1-{1-[3-fluoro-4-(trifluoromethyl)benzoyl]piperidin-4-yl}-3-[3-(7H-pyrrolo[2,3-d]pyrimidin-4-yl)-1H-pyrrol-1-yl]azetidin-3-yl}acetonitrile]	0.005 to 0.02	6.6	0.05 to 0.1
N#CCC1(n2cc(-c3ncnc4[nH]ccc34)cn2)CN(C2CCN(C(=O)c3c(F)ccc(F)c3F)CC2)C1 [Example 47, {3-[4-(7H-pyrrolo[2,3-d]pyrimidin-4-yl)-1H-pyrazol-1-yl]-1-[1-(2,3,6-trifluorobenzoyl)piperidin-4-yl]azetidin-3-yl}acetonitrile]	≤ 0.005	3.7	≤ 0.01
N#CCC1(n2cc(-c3c(F)cnc4[nH]ccc34)cn2)CN(C2CCN(C(=O)C3CCC(F)(F)CC3)CC2)C1 [Example 327, {1-{1-[(4,4-difluorocyclohexyl)carbonyl]piperidin-4-yl}-3-[4-(5-fluoro-1H-pyrrolo[2,3-b]pyridine-4-yl)-1H-pyrazol-1-yl]azetidin-3-yl}acetonitrile]	0.005 to 0.02	4.1	0.05 to 0.1
N#CCC1(n2cc(-c3ncnc4[nH]ccc34)cn2)CN(C2CCN(C(=O)c3cccc(Br)c3)CC2)C1 [Example 20, {1-[1-(3-bromobenzoyl)piperidin-4-yl]-3-[4-(7H-pyrrolo[2,3-d]pyrimidin-4-yl)-1H-pyrazol-1-yl]azetidin-3-yl}acetonitrile]	≤ 0.005	4.2	≤ 0.01
CN(C)Cc1cc(C(=O)N2CCC(N3CC(CC#N)(n4cc(-c5ncnc6[nH]ccc56)cn4)C3)CC2)cc(C(F)F)c1 [Example 375, {1-(1-{3-(difluoromethyl)-5-[(dimethylamino)methyl]benzoyl}piperidin-4-yl)-3-[4-(7H-pyrrolo[2,3-d]pyrimidin-4-yl)-1H-pyrazol-1-yl]azetidin-3-yl}acetonitrile]	≤ 0.005	12.7	0.01 to 0.05
N#CCC1(n2cc(-c3ncnc4[nH]ccc34)cn2)CN(C2CCN(C(=O)c3cc4ccc(C(F)(F)F)cc4s3)CC2)C1 [Example 94, [3-[4-(7H-pyrrolo[2,3-d]pyrimidin-4-yl)-1H-pyrazol-1-yl]-1-(1-{[6-(trifluoromethyl)-1-benzothien-2-yl]carbonyl}piperidin-4-yl)azetidin-3-yl]acetonitrile]	0.005 to 0.02	1.0	0.01 to 0.05
N#CCC1(n2cc(-c3ncnc4[nH]ccc34)cn2)CN(C2CCN(C(=O)Nc3cc(F)cc(F)c3)CC2)C1 [Example 175, 4-{3-(cyanomethyl)-3-[4-(7H-pyrrolo[2,3-d]pyrimidin-4-yl)-1H-pyrazol-1-yl]azetidin-1-yl}-N-(3,5-difluorophenyl)piperidine-1-carboxamide]	≤ 0.005	3.6	≤ 0.01
N#CCC1(n2cc(-c3ncnc4[nH]ccc34)cn2)CN(C2CCN(C(=O)c3ccnc(C(F)(F)F)c3)CC2)C1 [Example 57, (3-[4-(7H-pyrrolo[2,3-d]pyrimidin-4-yl)-1H-pyrazol-1-yl]-1-{1-[2-(trifluoromethyl)isonicotinoyl]piperidin-4-yl}azetidin-3-yl)acetonitrile]	> 0.03	3.3	> 0.1
N#CCC1(n2cc(-c3c(C#N)cnc4[nH]ccc34)cn2)CN(C2CCN(C(=O)c3cc(F)cc(C#N)c3)CC2)C1 [Example 333, 4-{1-[1-[1-(3-cyano-5-fluorobenzoyl)piperidin-4-yl]-3-(cyanomethyl)azetidin-3-yl]-1H-pyrazol-4-yl}-1H-pyrrolo[2,3-b]pyridine-5-carbonitrile]	0.005 to 0.02	8.8	0.05 to 0.1
N#CCC1(n2cc(-c3ncnc4[nH]ccc34)cn2)CN(C2CCN(C(=O)c3ccc(O)c(F)c3)CC2)C1 [Example 6, {1-[1-(3-fluoro-4-hydroxybenzoyl)piperidin-4-yl]-3-[4-(7H-pyrrolo[2,3-d]pyrimidin-4-yl)-1H-pyrazol-1-yl]azetidin-3-yl}acetonitrile]	≤ 0.005	14.3	0.01 to 0.05
N#CCC1(n2cc(-c3ncnc4[nH]ccc34)cn2)CN(C2CCN(C(=O)Nc3cnccc3C(F)(F)F)CC2)C1 [Example 165]	0.005 to 0.02	10.4	0.05 to 0.1
N#CCC1(n2cc(-c3ccnc4[nH]ccc34)cn2)CN(C2CCN(C(=O)c3nc(C(F)(F)F)cs3)CC2)C1 [Example 350]	0.005 to 0.02	15.0	> 0.1
COc1cccc(F)c1C(=O)N1CCC(N2CC(CC#N)(n3cc(-c4ncnc5[nH]ccc45)cn3)C2)CC1 [Example 39, {1-[1-(2-fluoro-6-methoxybenzoyl)piperidin-4-yl]-3-[4-(7H-pyrrolo[2,3-d]pyrimidin-4-yl)-1H-pyrazol-1-yl]azetidin-3-yl}acetonitrile]	≤ 0.005	3.2	≤ 0.01
N#CCC1(n2cc(-c3c(C#N)cnc4[nH]ccc34)cn2)CN(C2CCN(C(=O)c3c(F)cc(C#N)cc3F)CC2)C1 [Example 340, 4-{1-[1-[1-(4-cyano-2,6-difluorobenzoyl)piperidin-4-yl]-3-(cyanomethyl)azetidin-3-yl]-1H-pyrazol-4-yl}-1H-pyrrolo[2,3-b]pyridine-5-carbonitrile]	0.02 to 0.03	1.4	0.01 to 0.05
N#CCC1(n2cc(-c3ncnc4[nH]ccc34)cn2)CN(C2CCN(S(=O)(=O)c3ccccc3C#N)CC2)C1 [Example 247, 2-[(4-{3-(cyanomethyl)-3-[4-(7H-pyrrolo[2,3-d]pyrimidin-4-yl)-1H-pyrazol-1-yl]azetidin-1-yl}piperidin-1-yl)sulfonyl]benzonitrile]	≤ 0.005	5.1	≤ 0.01
N#CCC1(n2cc(-c3ncnc4[nH]ccc34)cn2)CN(C2CCN(Cc3cc4ccccc4nc3Cl)CC2)C1 [Example 214, {1-{1-[(2-chloroquinolin-3-yl)methyl]piperidin-4-yl}-3-[4-(7H-pyrrolo[2,3-d]pyrimidin-4-yl)-1H-pyrazol-1-yl]azetidin-3-yl}acetonitrile]	0.005 to 0.02	2.5	0.01 to 0.05
